Results published in patent US8536157B2, “Non-steroidal compounds” (The University of Melbourne, priority 2007, dated 2013).
pIC50: −log10 of the molar value.

Assays:
[1] = system: human lung parenchymal fibroblasts, pFb; test: Proliferation of human lung parenchymal fibroblasts in response to bFGF (cell counting); format: cell-based; settings: Fibroblast, given as Log IC50 (negative values), bFGF 300 pM, 48 h
Description: (§1) 3. Effects of Compounds on the Proliferation of Cells in Response to the Proliferative Stimulus of Either Thrombin (Human Airway Smooth Muscle) or Basic Fibroblast Growth Factor (bFGF)(Human Lung Parenchymal Fibroblasts, pFb)
The effects of compounds of the present invention on the proliferation of cells in response to the proliferative stimulus of either thrombin (human airway smooth muscle) or basic fibroblast growth factor (bFGF)(human lung parenchymal fibroblasts, pFb) were investigated. Cells were seeded onto 6-well plates at a density of 1.5×10^4 cells cm^2, made quiescent by removal of serum-containing media for 24 hours and then stimulated for 48 h with either thrombin (0.3 U/ml) or bFGF (300 pM). The test compounds were pre-incubated with HASM or pFb cells for 30 minutes before the addition of thrombin. At the end of the 48 hour incubation period, cells were detached from the culture plate by trypsin (0.5% w/v in PBS containing 1 mM EDTA), incubated for 5 minutes at ambient temperature in PBS containing 0.5% (w/v) trypan blue, washed twice (2% FCS in PBS), isolated by centrifugation (12,000×g, 5 min) and resuspended in 200 μl 2% FCS in PBS for counting in a haemocytometer chamber. […]

[2] = system: human airway smooth muscle (HASM) cells; test: Proliferation of human airway smooth muscle cells in response to thrombin (cell counting); format: cell-based; settings: given as Log IC50 (negative values), thrombin 0.3 U/ml, 48 h, compound pre-incubated 30 minutes
Description: as §1
The effects of compounds of the present invention on the proliferation of cells in response to the proliferative stimulus of either thrombin (human airway smooth muscle) or basic fibroblast growth factor (bFGF)(human lung parenchymal fibroblasts, pFb) were investigated. Cells were seeded onto 6-well plates at a density of 1.5×10^4 cells cm^2, made quiescent by removal of serum-containing media for 24 hours and then stimulated for 48 h with either thrombin (0.3 U/ml) or bFGF (300 pM). The test compounds were pre-incubated with HASM or pFb cells for 30 minutes before the addition of thrombin. At the end of the 48 hour incubation period, cells were detached from the culture plate by trypsin (0.5% w/v in PBS containing 1 mM EDTA), incubated for 5 minutes at ambient temperature in PBS containing 0.5% (w/v) trypan blue, washed twice (2% FCS in PBS), isolated by centrifugation (12,000×g, 5 min) and resuspended in 200 μl 2% FCS in PBS for counting in a haemocytometer chamber.
Human airway smooth muscle (HASM) cells were cultured from macroscopically normal bronchi (0.5-2 cm diameter) obtained from lung resection or heart-lung transplant specimens provided by the Alfred Hospital (Melbourne) according to methods published in detail previously (Fernandes et al., 1999).
Approximately 0.1 g of smooth muscle was stripped from the wall of the bronchus for each cell culture. Dissected tissue was immersed in Dulbecco's modified Eagle's medium (DMEM) (Flow Laboratories, Scotland), supplemented with 100 U/mL penicillin G (CSL, Australia) and 100 μg/mL streptomycin (CSL, Australia). The tissue was rinsed in phosphate buffered saline (PBS; Oxoid, England) and the airway smooth muscle was chopped into 2 mm^3 pieces and digested for 2 hours in DMEM containing elastase (0.5 mg/mL: Worthington Biochemical, USA) followed by a 12 hour incubation in DMEM containing collagenase (1 mg/mL) (Worthington Biochemical, USA), at 37° C. with agitation.
The resulting cell suspension was centrifuged and washed three times in phosphate buffered saline (PBS). Following the last centrifugation step, the cells were resuspended in 25 mL of DMEM supplemented with L-glutamine (2 mM: Sigma, USA), penicillin G (100 U/mL), streptomycin (100 μg/mL), amphotericin B (2 μg/mL: Wellcome, UK) and heat-inactivated FCS (10% v/v: CSL, Australia) and seeded into 25 cm^2 culture flasks. The primary isolates were incubated for 7 to 14 days to reach confluence. […]

[3] = system: PGE2 release in J774 macrophages; test: PGE2 release from LPS/IFNγ-stimulated J774 macrophages (radioimmunoassay); format: cell-based, murine; settings: Mus musculus, J774, 24 h, 30 min pre-treatment, 24 hour incubation
[4] = biological target: proteins in rat lung membranes; test: Competitive binding assay with [3H]-CP2117 on rat lung membranes (RLM); settings: given as Log IC50 (negative values); displacement of 10 nM [3H]-CP2117, overnight at 4° C.; ND- not detected
[5] = see WO 2004/101595; cited from earlier work

| Structure (SMILES) | pIC50 [1] | melting point [°C] | pIC50 [2] | activity at 1 µM ([3]; 1 μM, read-out: Effects on PGE2 release in J774 macrophages at 1 μM as a % of LPS/IFNγ control, mean) [%] | activity at 10 µM ([3]; l0 μM, read-out: Effects on PGE2 release in J774 macrophages at l0 μM as a % of LPS/IFNγ control, mean) [%] | Log IC50 RLM binding [4] | anti-inflammatory activity in vitro [5] |
| --- | --- | --- | --- | --- | --- | --- | --- |
| COc1ccc(/C(C)=N/OCc2ccc([N+](=O)[O-])cc2)cc1O [CP30218, (E)-3′-Hydroxy-4′-methoxyacetophenone O-4-Nitrobenzyl Oxime] | 8.18 | 105 to 105.7 | 5.23 | 218 | 188 | −6.44 | – |
| COc1cc2c(cc1O)C(=NOCc1ccc([N+](=O)[O-])cc1)C[C@@H]1[C@@H]2CC[C@]2(C)[C@@H](O)CC[C@@H]12 [CP-2117, 2-methoxy-6-(4-nitrobenzyloxyimino)estradiol] | – | – | – | – | – | – | anti-inflammatory activity |
